Laboratory results: the NIST ThermoML archive (doi:10.1021/acs.jced.8b00684)

Assay: xn = mol fraction of the nth substance listed
Details: 100 kPa, Liquid, Falling or rolling sphere viscometry

CCCCCCn1cc[n+](C)c1.F[B-](F)(F)F [1-hexyl-3-methylimidazolium tetrafluoroborate] + CC#N
viscosity [mPa·s]
Details	x1 = 0.104	x1 = 0.2049	x1 = 0.2948	x1 = 0.4066	x1 = 0.4616	x1 = 0.5697	x1 = 0.6626	x1 = 0.8083	x1 = 0.9044	x1 = 1
293.15 K	1.15	2.43	4.79	10.5	14.9	29.1	50	112	184	293
298.15 K	1.05	2.26	4.32	9.04	12.7	24	40.3	86.4	139	216
303.15 K	0.99	2.08	3.89	7.92	11	20.1	32.8	67.7	106	163
313.15 K	0.87	1.79	3.21	6.19	8.36	14.6	22.8	43.9	65.9	96.7
323.15 K	0.78	1.56	2.69	4.98	6.58	11	16.6	30.1	43.5	61.8
333.15 K	0.71	1.37	2.3	4.1	5.32	8.58	12.5	21.7	30.4	41.9
343.15 K	0.65	1.22	1.99	3.43	4.38	6.85	9.75	16.2	22.1	29.5

CCCCCCn1cc[n+](C)c1.F[B-](F)(F)F [1-hexyl-3-methylimidazolium tetrafluoroborate] + C[S+](C)[O-]
viscosity [mPa·s]
Details	293.15 K	298.15 K	303.15 K	313.15 K	323.15 K	333.15 K	343.15 K	353.15 K
x1 = 0.116	4.93	4.18	3.7	2.96	2.43	1.94	1.68	1.37
x1 = 0.2495	11	9.67	8.37	6.47	5.11	4.02	3.14	2.77
x1 = 0.2831	13.7	11.8	10.1	7.71	6.01	4.74	3.68	3.21
x1 = 0.3857	25	20.6	17.1	12.4	9.35	7.28	5.75	4.72
x1 = 0.5036	44.2	34.9	28.4	19.6	14.3	10.8	8.72	6.7
x1 = 0.5714	58.4	45.6	36.6	24.8	17.7	13.2	10.6	7.99
x1 = 0.6702	84.8	65.6	51.8	34.1	23.7	17.2	13.5	10.2
x1 = 0.7517	114	87.6	68.4	44	30	21.4	16.2	12.3
x1 = 0.7883	130	99.7	77.5	49.2	33.3	23.6	17.6	13.4
x1 = 0.8976	196	148	113	69.4	45.6	31.6	22.5	17.2
x1 = 1	293	216	163	96.7	61.8	41.9	29.5	21.7
